Values of other authors in patent publication US20250216408A1, “REAGENT COMBINATION AND METHOD FOR DETECTING TARGET IMMUNOSUPPRESSANT IN WHOLE BLOOD WITHOUT CENTRIFUGATION” (Shenzhen New Industries Biomedical Engineering co., Ltd., priority 2023, published 2025).

Legend:
[1] = FK506 in plasma

Row | Share of drug in whole blood taken up by / present in / bound to red blood cells | Plasma protein binding rate [1] | Compound
1 | 95% |  | CO[C@H]1C[C@@H]2CC[C@@H](C)[C@@](O)(O2)C(=O)C(=O)N2CCCC[C@H]2C(=O)O[C@H]([C@H](C)C[C@@H]2CC[C@@H](O)[C@H](OC)C2)CC(=O)[C@H](C)/C=C(\C)[C@@H](O)[C@@H](OC)C(=O)[C@H](C)C[C@H](C)/C=C/C=C/C=C/1C [sirolimus]
2 | 75%-80% | over 98% | C=CC[C@@H]1/C=C(\C)C[C@H](C)C[C@H](OC)[C@H]2O[C@@](O)(C(=O)C(=O)N3CCCC[C@H]3C(=O)O[C@H](/C(C)=C/[C@@H]3CC[C@@H](O)[C@H](OC)C3)[C@H](C)[C@@H](O)CC1=O)[C@H](C)C[C@@H]2OC [FK506, tacrolimus]
